Experiments:
WM115 = assay: apoptotic fraction of cells (caspase-3 NucView488 positive); higher = more apoptosis
Protocol: (§1)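 BRAF V600E/D melanoma cell lines were seeded in 96-well plates, treated in 4 replicates with seven doses (3.16 nM to 3.16 uM) of RAF/MEK inhibitors for 24, 48 or 72 h, and stained with Hoechst 33342 (nuclei) and DEVD-NucView488 caspase-3 substrate. Plates were imaged on an Operetta. Relative viability is the cell count normalised to a DMSO-treated control; apoptosis fraction is the fraction of NucView488-positive nuclei.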

K2 = assay: as above
Protocol: as §1

MMACSF = assay: as above
Protocol: as §1

LOXIMVI [1] = assay: as above
Protocol: as §1

C32 = assay: relative viability (cell count relative to DMSO-treated control) (fraction of DMSO control); higher = more viable cells / less drug effect
Protocol: as §1

MZ7MEL = assay: as above
Protocol: as §1

LOXIMVI [2] = assay: as above; conditions: 24 h
Protocol: as §1

CN(C)CCOc1ccc(-c2nc(-c3ccncc3)c(-c3ccc4c(c3)CC/C4=N\O)[nH]2)cc1
Conditions	apoptotic fraction of cells, K2	apoptotic fraction of cells, LOXIMVI [1]	apoptotic fraction of cells, MMACSF	apoptotic fraction of cells, WM115	relative viability, C32	relative viability, MZ7MEL
24 h, 0.00316 µM	0.00595	0.0512	0.0448	0.0434	1.07	1.1
24 h, 0.01 µM	0.00244	0.0389	0.0421	0.0337	1.05	1.18
24 h, 0.0316 µM	0.00221	0.0361	0.0446	0.0512	1.09	1.1
24 h, 0.1 µM	0.00264	0.0658	0.0491	0.0473	1.05	1.09
24 h, 0.316 µM	0.0035	0.0417	0.0475	0.0461	0.971	1.18
24 h, 1 µM	0.0129	0.0511	0.048	0.0874	0.842	1.13
24 h, 3.16 µM	0.0372	0.0461	0.0414	0.0958	0.779	0.887
48 h, 0.00316 µM	0.00193	0.143	0.0482	0.047	1.2	1.07
48 h, 0.01 µM	0.00284	0.0806	0.0408	0.0376	1.04	0.968
48 h, 0.0316 µM	0.00174	0.0671	0.041	0.0402	1.03	0.991
48 h, 0.1 µM	0.00423	0.0471	0.0486	0.0491	1.06	0.874
48 h, 0.316 µM	0.00888	0.0374	0.0567	0.0688	0.858	0.67
48 h, 1 µM	0.0309	0.0404	0.0889	0.101	0.551	0.608
48 h, 3.16 µM	0.0801	0.0453	0.0951	0.131	0.4	0.545
72 h, 0.00316 µM	–	0.253	0.0417	0.0298	1.1	1.23
72 h, 0.01 µM	–	0.188	0.0427	0.031	1.19	1.14
72 h, 0.0316 µM	–	0.135	0.0345	0.0346	1.08	0.834
72 h, 0.1 µM	–	0.0607	0.0358	0.0452	0.762	0.614
72 h, 0.316 µM	–	0.0478	0.0666	0.0689	0.436	0.537
72 h, 1 µM	–	0.0458	0.155	0.144	0.276	0.414
72 h, 3.16 µM	–	0.0628	0.224	0.158	0.209	0.387

LOXIMVI [2]
Conditions	relative viability
0.00316 µM	0.935
0.01 µM	1.01
0.0316 µM	1.02
0.1 µM	0.997
0.316 µM	1.02
1 µM	0.987
3.16 µM	0.903

Cc1ccc(NC(=O)c2cccc(C(C)(C)C#N)c2)cc1Nc1ccc2ncn(C)c(=O)c2c1 [AZ628]
Conditions	apoptotic fraction of cells, K2	apoptotic fraction of cells, LOXIMVI [1]	apoptotic fraction of cells, MMACSF	apoptotic fraction of cells, WM115	relative viability, C32	relative viability, MZ7MEL
24 h, 0.00316 µM	0.00396	0.0535	0.0452	0.0464	1.09	1.02
24 h, 0.01 µM	0.003	0.0347	0.0505	0.0415	1.12	1.02
24 h, 0.0316 µM	0.00276	0.0365	0.0425	0.0535	1.05	1.05
24 h, 0.1 µM	0.00598	0.0586	0.0308	0.0496	1.02	1.19
24 h, 0.316 µM	0.0287	0.0296	0.0456	0.0725	0.87	1.12
24 h, 1 µM	0.117	0.0677	0.0524	0.135	0.757	0.945
24 h, 3.16 µM	0.135	0.0554	0.0606	0.202	0.877	0.878
48 h, 0.00316 µM	0.00258	0.0814	0.0483	0.0302	1.17	1.03
48 h, 0.01 µM	0.00301	0.0536	0.0434	0.0498	1.14	1.04
48 h, 0.0316 µM	0.00475	0.0416	0.0445	0.0357	1.01	1
48 h, 0.1 µM	0.0219	0.0479	0.0497	0.0517	0.793	0.726
48 h, 0.316 µM	0.0649	0.063	0.0653	0.139	0.428	0.549
48 h, 1 µM	0.254	0.118	0.159	0.311	0.109	0.435
48 h, 3.16 µM	0.358	0.163	0.25	0.379	0.0749	0.465
72 h, 0.00316 µM	–	0.139	0.0431	0.0295	0.992	1.2
72 h, 0.01 µM	–	0.104	0.0411	0.0285	1.1	1.11
72 h, 0.0316 µM	–	0.0405	0.0335	0.0418	0.947	0.586
72 h, 0.1 µM	–	0.0836	0.083	0.159	0.45	0.336
72 h, 0.316 µM	–	0.117	0.226	0.419	0.163	0.33
72 h, 1 µM	–	0.211	0.465	0.644	0.059	0.356
72 h, 3.16 µM	–	0.497	0.62	0.82	0.0269	0.327

LOXIMVI [2]
Conditions	relative viability
0.00316 µM	0.963
0.01 µM	0.949
0.0316 µM	0.956
0.1 µM	0.942
0.316 µM	0.86
1 µM	0.862
3.16 µM	0.822

Reference: the supplement of paper PMC4380931
